As usually defined, the pIC50 is the IC50 on a negative log10 scale, so that one unit is a factor of ten. High values mean a low IC50, low ones a high IC50.

1 compound from patent US12565475B2, “Small molecule compound inhibiting signal transmission path of TLR7 and TLR9 and use thereof” (AJOU UNIVERSITY INDUSTRY-ACADEMIC COOPERATION FOUNDATION, priority 2019, dated 2026) can be followed below.

pIC50: −log10 of the molar value. Entries after “also recorded” stand apart in the source; their conditions may differ.

The target in this test is T1, TLR7 (Mus musculus, UniProt P58681).
T1 construct: endogenous in cells; host or cells: RAW 264.7
T1 sequence (P58681 27-1050): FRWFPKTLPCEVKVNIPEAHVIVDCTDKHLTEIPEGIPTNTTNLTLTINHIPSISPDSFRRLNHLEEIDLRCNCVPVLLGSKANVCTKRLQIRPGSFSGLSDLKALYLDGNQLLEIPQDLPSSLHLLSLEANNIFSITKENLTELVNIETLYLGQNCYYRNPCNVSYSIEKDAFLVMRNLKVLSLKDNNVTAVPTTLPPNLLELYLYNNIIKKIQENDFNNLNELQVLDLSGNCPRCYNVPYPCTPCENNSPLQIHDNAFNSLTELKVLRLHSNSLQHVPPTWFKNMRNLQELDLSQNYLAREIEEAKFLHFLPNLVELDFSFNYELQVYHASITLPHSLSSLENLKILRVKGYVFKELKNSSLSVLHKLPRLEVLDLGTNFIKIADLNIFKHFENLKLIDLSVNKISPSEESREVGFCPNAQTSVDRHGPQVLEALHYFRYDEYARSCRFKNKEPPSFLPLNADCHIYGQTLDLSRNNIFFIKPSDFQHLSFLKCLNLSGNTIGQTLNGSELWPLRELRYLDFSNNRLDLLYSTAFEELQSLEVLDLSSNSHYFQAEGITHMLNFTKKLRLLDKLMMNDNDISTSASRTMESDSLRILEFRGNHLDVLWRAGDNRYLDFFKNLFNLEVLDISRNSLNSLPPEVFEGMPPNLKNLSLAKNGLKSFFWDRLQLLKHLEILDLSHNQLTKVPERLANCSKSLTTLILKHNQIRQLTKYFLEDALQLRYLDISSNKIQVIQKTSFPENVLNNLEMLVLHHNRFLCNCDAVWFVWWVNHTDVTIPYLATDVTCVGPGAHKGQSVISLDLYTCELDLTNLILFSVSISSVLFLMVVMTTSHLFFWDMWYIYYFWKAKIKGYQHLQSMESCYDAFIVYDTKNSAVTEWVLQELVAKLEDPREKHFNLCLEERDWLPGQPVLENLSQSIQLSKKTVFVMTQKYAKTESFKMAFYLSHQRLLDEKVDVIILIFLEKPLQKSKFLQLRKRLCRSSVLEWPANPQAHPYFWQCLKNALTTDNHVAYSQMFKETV
The experiment in a line: TLR7-mediated TNF-α secretion (imiquimod stimulation), ELISA. Format: cell-based, murine. As to the method:
Agonists specific to TLR1/TLR2 (Pam3CSK4), TLR2/TLR6 (FSL-1), TLR3 (Poly I:C), TLR7 (imiquimod), and TLR8 (TL8-506) were purchased from InvivoGen Ltd. (Hong-Kong, China), and a TLR4-specific agonist (LPS from E. coli O111:B4) was purchased from Sigma-Aldrich, Inc. For TLR9-specific stimulation, class C CpG-ODN (ODN2395, 5′-TCGTCGTTTTCGGCGCGCGCCG-3′) having full phosphorothioate backbone modification was synthesized (Bioneer, Inc., Daejeon, Korea). All TLR agonists were dissolved in deionized water and applied to a culture media for TLR activation. The cells were treated with test compounds or a control medium for 1 hour, and then stimulated with a TLR agonist for 4 hours, or 24 hours in the case of poly(I:C), and the cytokine secretion was monitored.
RAW 264.7 or differentiated THP-1 cell lines were seeded onto a 96-well culture plate at a density of 2×10^4 cells/well. The cells were treated with test compounds for 1 hour followed by the stimulation with TLR agonists for 4 hours. The supernatant was transferred to pre-coated assay plates, and the secretion levels of mouse and human TNF-α were measured by respective ELISA kits (Invitrogen, Carlsbad, CA, USA). All experiments were performed according to the manufacturer's instructions. Absorbance was measured by a microplate reader spectrophotometer (Molecular Devices, Inc., San Jose, CA, USA), and data was interpolated from a standard curve using SoftMax Pro 5.3 software (Molecular Devices, Inc.).
In order to evaluate the antagonistic effect of each compound on TLR7/TLR9 through ELISA (enzyme-linked immunosorbent assay), RAW 264.7 cells were pretreated with the eight compounds followed by the stimulation with a TLR7-specific agonist (imiquimod, 3.61 μM) or with a TLR9-specific agonist (ODN2395, 0.5 μM). […] Since the two ligands had no agonistic effect per se (FIG. 3B), the increased cytokine production may be due to cell activation (or non-specific cellular stress) by co-treatment. Consequently, TIC10 was selected as the most suitable lead for further optimization to improve the inhibitory potency against both TLR7 and TLR9.
On the technique in general: In an ELISA, binding on a coated surface is turned into a signal by an enzyme label.

`COc1ccc(CNc2ncc(-c3ccc4c(c3)OCO4)n2C)c(OC)c1` [TIC10-7, 5-(2H-1,3-benzodioxol-5-yl)-N-[(2,4-dimethoxyphenyl)methyl]-1-methyl-1H-imidazol-2-amine]: the “TLR7-mediated TNF-α secretion” value (RAW 264.7, 10 or 20 μM, imiquimod (receptor specificity, FIG. 6)) is “moderately reduced”. Moreover, the “inhibitory efficacy on TLR7-mediated TNF-α secretion” value (RAW 264.7, 10 or 50 μM, imiquimod (FIG. 4B)) is on record as “improved inhibitory efficacy compared to TIC10; also recorded: to a greater extent as compared to the other derivatives”. This compound also gave a pIC50 (RAW 264.7, imiquimod (FIG. 4D)) of 5.17.
